We go through 11 molecules from US20250042882A1, “CERTAIN 3-AZABICYCLO[3.1.0]HEXANES AS GLP-1 RECEPTOR MODULATORS” (AstraZeneca AB, priority 2021, published 2025).

One experiment concerns the target T1, GLP-1R (Homo sapiens, UniProt P43220).
T1 construct: host or cells: EndoC-βH1 human pancreatic beta cell line
The experiment can be described thus: EndoC cAMP Accumulation Assay. Format: cell-based. As to conditions: EndoC-βH1 human pancreatic β cell line; HTRF cAMP accumulation. The text has this:
EndoC cAMP Accumulation Assay
A HTRF cAMP assay (cAMP Gs dynamic kit; CisoBio Cat #62AM4PEJ) was used to identify agonists of GLP-1R in a pancreatic insulinoma cell line (EndoC-⊕H1). […] EndoC-PHlcells have detectable GLP-1R messenger ribonucleic acid (mRNA) as detected by quantitative polymerase chain reaction (qPCR). […] The EndoC-PH1 cell line is a valid model of human beta cells and applicable for screenings to identify novel drug target candidates (Mol. Metab., 2018, 8, 144-157). CisBio HTRF cAMP kits are based on a competitive immunoassay using cryptate-labelled anti-cAMP antibody and d2-labeled cAMP. The detection kit is intended for the direct quantitative determination of cAMP. The specific signal (i.e. energy transfer) is inversely proportional to the concentration of cAMP in the standard or sample. Test compounds (10 mM in DMSO) were diluted into assay buffer (HBSS (Sigma #H8264) supplemented with 25 mM HEPES (Gibco #15630, pH 7.4), 0.1% BSA (Sigma #A3059) and 0.5 mM IBMX (Sigma #I7018) included fresh on the day of the assay) into 96 well U-bottom plates (Greiner #650201). Diluted compounds were transferred to ECHO source polypropylene plates (Labcyte #P-05525) and dose response curves were dispensed acoustically using ECHO 550 into black shallow-well u-bottom 384-well HTRF Assay Plates (Corning 4514).
Cryovials of EndoC-H1 (supplied at 1×10e^7 cells/vial) were used directly for screening. The cryovials and were removed from N2(l) and thawed rapidly in a 37° C. water bath. The cells were resuspended in assay buffer and centrifuged at 300 g for 5 min. Cells were resuspended in assay buffer at the appropriate concentration, typically at 12e5 cells per mL (3000 cells per well, dependent on cell batch) and 2.5 μL diluted cells were added to all wells of destination plate by Multidrop combi reagent dispenser (Thermofisher). The plates were incubated at rt for 30 min. The assay was stopped by adding 2.5 μL anti-cAMP cryptate solution to all wells and 2.5 μL cAMP-d2 solution (both diluted 1:20 in lysis buffer) to columns 1-22 by Combi drop. A volume of 2.5 μL cAMP-d2 solution was added to wells E23 to P24 and 2.5 μL lysis buffer added to wells A23 to D24 by multichannel pipette. The plates were incubated at rt for 1 h and read on an Envision plate reader using excitation wavelength of 320 mn and emission of 590 nm and 660 nm.
Raw data from Envision is converted to % DeltaF according to the manufacturer's instructions. Dose response curves are analysed via 4-Parameter Logistical Analysis and assay plate Z′ values obtained. Samples are graphed as percentage (%) activation plots compared to GIP (1-42, Bachem H-5645) with assay window defined by negative control as basal cell cAMP levels and positive control are defined by maximum GIP (82.5 nM) signal. GLP-1 (7-36 amide, Bachem H-6795) dose response curve was included on all plates.

Another experiment addresses T2, human GLP-1R receptor (Homo sapiens, UniProt P43220, L260F).
T2 construct: expressed in transfected cells; host or cells: CHO-K1 (ATCC CCL-61)
Kind of experiment: CHOK1 GLP-1R cAMP Assay. In kind it is cell-based. As to conditions: CHO-K1 cell line stably expressing human GLP-1R (Leu260Phe variant); HTRF cAMP; agonist activity. As for the experimental part:
A cell line stably expressing the human GLP-1R receptor (NM_002062.5, including the naturally-occurring variant Leu260Phe) in a CHO-K1 (ATCC® CCL-61™) was used for assay.
GLP-1 receptor mediated agonist activity was determined in a cell-based assay measuring cyclic adenosine monophosphate (cAMP) levels in cells using Homogeneous Time-Resolved Fluorescence (HTRF) cAMP detection kit (CisBio catalog #62AM4PEC, cAMP Gs Dynamic range kit). The cAMP detection method is based on a competitive immunoassay, in which cAMP produced by the cells and cAMP labeled with the dye d2 compete for binding to a Europium-Cryptate-labeled anti-cAMP antibody. The specific HTRF signal is inversely proportional to the concentration of cAMP.
Compounds were added to individual well in 384 well-assay plates (Greiner #784076) using an Echo (LabCyte) dispenser from 10 mM stocks. Varying concentration of compounds were added to wells, and DMSO was used to normalize each well to a volume of 100 nL. A dose response curve of GLP-1(7-36)NH2 (Bachem H-6795) was included in each run. 5 μL of cAMP concentration response standards are applied in specified wells in the assay plates. Cryo-preserved cells are thawed and resuspended in assay buffer pre-heated to 37° C. (20 mM HEPES pH 7.4, 1× Hank's Balanced Salt Solution (HBSS, Life Technologies #14065) supplemented with 0.1% (w/v) bovine serum albumin (Sigma, A-7030). Cells were centrifuged at 250*g for 5 min at rt, and resuspended in room tempered assay buffer to a final density of 0.16*10^6 cell/mL, to deliver 800 cells/well. 5 μL of assay buffer with 1 mM 3-isobutyl-1-methylxanthin (IBMX; Sigma cat I-7018) was dispensed per well in assay plates using a multidrop combi (Thermo Scientific) subsequently 5 μL of cell suspension was distributed to relevant wells in the assay using a multidrop dispenser. Assay plates were incubated 20 min at rt.
Detection reagents, Europium-Cryptate-labeled anti-cAMP antibody and cAMP labeled with the dye d2, are diluted in lysis buffer, provided by the manufacturer. 5 μL of each detection reagent is supplemented to each assay well using a multidrop dispenser. Assay plates are incubated in the dark for at least one h. The HTRF signal is measured using the HTRF module (excitation: 337 nm, emission A: 665 nm and emission B: 620 nm) in Pherastar FSX (BMG Labtech).
Raw data were converted to pM cAMP using the cAMP standard curve included in each run.
Converted data were further analyzed in Genedata Screener (Genedata) and EC50 determinations were made from agonist dose-response curves analyzed with a curve fitting program using a 4-parameter logistic dose response equation (Equation y=A+((B−A)/1+((C/x)^D))) where A is no stimulation, B is full stimulation, C is the EC50 and D is the Hill slope). The percent effect was determined relative to a saturating concentration of a full GLP-1R agonist (GLP-1(7-36)NH2 has 100% effect in this assay setup).

T1 sequence (P43220 24-463): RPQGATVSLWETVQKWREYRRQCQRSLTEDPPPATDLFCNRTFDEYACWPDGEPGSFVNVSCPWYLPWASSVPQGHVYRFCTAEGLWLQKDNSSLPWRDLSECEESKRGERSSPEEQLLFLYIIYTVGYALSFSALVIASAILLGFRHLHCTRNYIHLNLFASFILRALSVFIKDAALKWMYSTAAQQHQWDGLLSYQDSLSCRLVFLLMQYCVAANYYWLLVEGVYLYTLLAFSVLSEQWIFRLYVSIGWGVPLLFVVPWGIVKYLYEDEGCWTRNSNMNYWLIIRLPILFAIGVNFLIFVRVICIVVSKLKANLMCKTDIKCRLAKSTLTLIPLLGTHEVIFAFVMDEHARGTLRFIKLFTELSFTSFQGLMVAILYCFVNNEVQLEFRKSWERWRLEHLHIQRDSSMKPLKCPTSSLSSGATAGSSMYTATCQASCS
T2 sequence (P43220 24-463 L260F): as the sequence (P43220 24-463) above, with L237F counted along it

As to `COc1cc(C(=O)O)cc2c1nc(CN1C[C@@H]3[C@H](C1)[C@H]3c1c(F)ccc3c1OC(C)(c1ccc(Cl)cn1)O3)n2C[C@@H]1CCO1` (stereo partly drawn) [Example 6, 2-(((1R,5S,6R)-6-(2-(5-Chloropyridin-2-yl)-5-fluoro-2-methylbenzo[d][1,3]dioxol-4-yl)-3-azabicyclo[3.1.0]hexan-3-yl)methyl)-4-methoxy-1-(((S)-oxetan-2-yl)methyl)-1H-benzo[d]imidazole-6-carboxylic acid], the results for the concentration for a half-maximal effect (EC50) on GLP-1R and at human GLP-1R receptor were 19 nM and 31 nM, respectively.

In the case of `C[C@@]1(c2ccc(Cl)cn2)Oc2cccc([C@H]3[C@@H]4CN(Cc5nc6c(F)cc(C(=O)O)cc6n5C[C@@H]5CCO5)C[C@@H]43)c2O1` (relative stereo) [Example 9, 2-(((1R,5S,6R)-6-((R*)-2-(5-Chloropyridin-2-yl)-2-methylbenzo[d][1,3]dioxol-4-yl)-3-azabicyclo[3.1.0]hexan-3-yl)methyl)-4-fluoro-1-(((S)-oxetan-2-yl)methyl)-1H-benzo[d]imidazole-6-carboxylic acid], the EC50 on GLP-1R was found to be 58 nM; on human GLP-1R receptor it was 40 nM.

Turning to `CCn1cncc1Cn1c(CN2C[C@@H]3[C@H](C2)[C@H]3c2cccc3c2O[C@](C)(c2ccc(Cl)cn2)O3)nc2c(F)cc(C(=O)O)cc21` (relative stereo) [Example 14, 2-((1R,5S,6s)-6-(R*)-2-(5-Chloropyridin-2-yl)-2-methylbenzo[d][1,3]dioxol-4-yl)-3-azabicyclo[3.1.0]hexan-3-yl)methyl)-1-((1-ethyl-1H-imidazol-5-yl)methyl)-4-fluoro-1H-benzo[d]imidazole-6-carboxylic acid], the values for the concentration giving a half-maximal response (EC50) at GLP-1R and at human GLP-1R receptor were 5.9 nM and 26 nM, respectively.

`CCn1cncc1Cn1c(CN2C[C@@H]3[C@H](C2)[C@H]3c2cccc3c2O[C@](C)(c2ccc(Cl)cn2)O3)nc2c(Cl)cc(C(=O)O)cc21` (single isomer, unassigned) [Example 12, 4-Chloro-2-(((1R,5S,6s)-6-((R*)-2-(5-chloropyridin-2-yl)-2-methylbenzo[d][1,3]dioxol-4-yl)-3-azabicyclo[3.1.0]hexan-3-yl)methyl)-1-((1-ethyl-1H-imidazol-5-yl)methyl)-1H-benzo[d]imidazole-6-carboxylic acid]: the half-maximal effective concentration (EC50) at GLP-1R came out at 7.5 nM; on human GLP-1R receptor it was 30 nM.

`C[C@@]1(c2ccc(C#N)cc2F)Oc2cccc([C@H]3[C@@H]4CN(Cc5nc6c(F)cc(C(=O)O)cc6n5C[C@@H]5CCO5)C[C@@H]43)c2O1` (relative stereo) [Example 11, 2-((1R,5S,6R)-6-((R*)-2-(4-Cyano-2-fluorophenyl)-2-methylbenzo[d][1,3]dioxol-4-yl)-3-azabicyclo[3.1.0]hexan-3-yl)methyl)-4-fluoro-1-(((S)-oxetan-2-yl)methyl)-1H-benzo[d]imidazole-6-carboxylic acid]: the 50% effective concentration (EC50) turned out to be 57 nM at GLP-1R and 61 nM on human GLP-1R receptor.

In the case of “4-Chloro-2-(((1R,5S,6R)-6-((R*)-2-(5-chloropyridin-2-yl)-5-fluoro-2-methylbenzo[d][1,3]dioxol-4-yl)-3-azabicyclo[3.1.0]hexan-3-yl)methyl)-1-(((S)-oxetan-2-yl)methyl)-1H-benzo[d]imidazole-6-carboxylic acid [Example 8a]”, the EC50 at GLP-1R came out at 280 nM; on human GLP-1R receptor, 150 nM.

Consider `CC1(c2ccc(Cl)cn2)Oc2cccc([C@H]3[C@@H]4CN(Cc5nc6ccc(C(=O)O)cc6n5CC5CCO5)C[C@@H]43)c2O1` (stereo partly drawn) [Example 3, 2-(((1R,5S,6R)-6-(2-(5-Chloropyridin-2-yl)-2-methylbenzo[d][1,3]dioxol-4-yl)-3-azabicyclo[3.1.0]hexan-3-yl)methyl)-1-(((S)-oxetan-2-yl)methyl)-1H-benzo[d]imidazole-6-carboxylic acid], for which the 50% effective concentration (EC50) worked out at 170 nM at GLP-1R and 260 nM on human GLP-1R receptor.

Turning to `C[C@@]1(c2ccc(Cl)cn2)Oc2cccc([C@H]3[C@@H]4CN(Cc5nc6c(Cl)cc(C(=O)O)cc6n5CC5CCO5)C[C@@H]43)c2O1` (relative stereo) [Example 5, 4-Chloro-2-(((1R,5S,6R)-6-((R*)-2-(5-chloropyridin-2-yl)-2-methylbenzo[d][1,3]dioxol-4-yl)-3-azabicyclo[3.1.0]hexan-3-yl)methyl)-1-(((S)-oxetan-2-yl)methyl)-1H-benzo[d]imidazole-6-carboxylic acid], the EC50 on GLP-1R was found to be 16 nM; at human GLP-1R receptor, 24 nM.

`COc1cc(C(=O)O)cc2c1nc(CN1C[C@@H]3[C@H](C1)[C@H]3c1cccc3c1O[C@](C)(c1ccc(Cl)cn1)O3)n2CC1CCO1` (single isomer, unassigned) [Example 4b, 2-(((1R,5S6R)-6-((R*)-2-(5-Chloropyridin-2-yl)-2-methylbenzo[d][1,3]dioxol-4-yl)-3-azabicyclo[3.1.0]hexan-3-yl)methyl)-4-methoxy-1-(((S)-oxetan-2-yl)methyl)-1H-benzo[d]imidazole-6-carboxylic acid]: the figures for the EC50 on GLP-1R and at human GLP-1R receptor were 14 nM and 61 nM, respectively.

Take “2-(((1R,5S,6R)-6-((R*)-2-(5-Chloropyridin-2-yl)-5-fluoro-2-methylbenzo[d][1,3]dioxol-4-yl)-3-azabicyclo[3.1.0]hexan-3-yl)methyl)-4-fluoro-1-(((S)-oxetan-2-yl)methyl)-1H-benzo[d]imidazole-6-carboxylic acid [Example 10b]”: the EC50 at GLP-1R was determined as 1900 nM; on human GLP-1R receptor it was 680 nM.

Take `C[C@@]1(c2ccc(Cl)cn2)Oc2cccc([C@H]3[C@@H]4CN(Cc5nc6c(F)cc(C(=O)O)cc6n5CCn5cccn5)C[C@@H]43)c2O1` (single isomer, unassigned) [Example 7, 1-(2-(1H-Pyrazol-1-yl)ethyl)-2-(((1R,5S,6s)-6-((R*)-2-(5-chloropyridin-2-yl)-2-methylbenzo[d][1,3]dioxol-4-yl)-3-azabicyclo[3.1.0]hexan-3-yl)methyl)-4-fluoro-1H-benzo[d]imidazole-6-carboxylic acid]: the concentration giving a half-maximal response (EC50) at GLP-1R was 150 nM; at human GLP-1R receptor, 260 nM.
